Measurements taken from patent US8951992B2, “Mycobacterium membrane protease as a target for inhibitors of intrabacterial pH homeostasis” (Cornell University, priority 2008, dated 2015).

Experiments:
Assay type in all cases: cell-based, Mycobacterium tuberculosis
[1] = system: Wild-type H37Rv transformed with pH-GFP; details: pH 4.5
[2] = system: Rv3671c mutant in IFN-γ-activated macrophages
[3] = system: Rv3671c mutant in IFN-γ-activated macrophages; remark: listed apart in the source
Rv3671c mutant [4] = system: Rv3671c mutant
Rv3671c mutant [5] = system: Rv3671c mutant; remark: listed apart in the source
Rv3671c mutant [6] = system: Rv3671c mutant; remark: listed apart in the source
Rv3671c mutant [7] = system: Rv3671c mutant; remark: listed apart in the source
lysX mutant = system: lysX mutant

SMILES: CC[C@@H](CO)NCCN[C@@H](CC)CO [Ethambutol]
- concentrations causing a substantial decline in pHIB [1]: ≥ 8 μg/ml

SMILES: Cl.N [NH4Cl]
- effect on pHIB of the Rv3671c mutant [2]: protected
- effect on survival of the Rv3671c mutant [3]: restored

SMILES: CCCCCCCCCCCCOS(=O)(=O)[O-].[Na+] [SDS]
- sensitivity of the Rv3671c mutant to SDS (Rv3671c mutant [4]): hypersensitive

SMILES: N#CC(C#N)=NNc1cccc(Cl)c1 [carbonyl cyanide m-chlorophenylhydrazone]
- effect on the Rv3671c mutant's pHIB (Rv3671c mutant [5]): further reduced
- effect on the Rv3671c mutant's survival (Rv3671c mutant [6]): further attenuated

SMILES: CC[C@H]1OC(=O)[C@H](C)[C@@H](O[C@H]2C[C@@](C)(OC)[C@@H](O)[C@H](C)O2)[C@H](C)[C@@H](O[C@@H]2O[C@H](C)C[C@H](N(C)C)[C@H]2O)[C@](C)(O)C[C@@H](C)C(=O)[C@H](C)[C@@H](O)[C@]1(C)O [erythromycin]
- sensitivity of the Rv3671c mutant to the antibiotic (Rv3671c mutant [7]): hypersensitive
- sensitivity of the lysX mutant to the antibiotic (lysX mutant): hypersensitive

SMILES: NNC(=O)c1ccncc1 [isoniazid]
- effect on Mtb's pHIB [1]: did not significantly alter pHIB

SMILES: CC[C@@]1([C@@H]2O[C@@H]([C@H]3O[C@@](O)(CO)[C@H](C)C[C@@H]3C)C[C@@H]2C)CC[C@H]([C@]2(C)CC[C@]3(C[C@H](O)[C@@H](C)[C@@H]([C@@H](C)[C@@H](OC)[C@H](C)C(=O)O)O3)O2)O1 [monensin]
- effect on Mtb's pHIB [1]: concentration dependent decline in pHIB
- effect on the Rv3671c mutant's pHIB (Rv3671c mutant [5]): further reduced
- effect on the Rv3671c mutant's survival (Rv3671c mutant [6]): further attenuated

SMILES: NC(=O)c1cnccn1 [pyrazinmide]
- effect on Mtb's pHIB [1]: did not significantly alter pHIB

SMILES: CO[C@H]1/C=C/O[C@@]2(C)Oc3c(C)c(O)c4c(O)c(c(/C=N/N5CCN(C)CC5)c(O)c4c3C2=O)NC(=O)/C(C)=C\C=C\[C@H](C)[C@H](O)[C@@H](C)[C@@H](O)[C@@H](C)[C@H](OC(C)=O)[C@@H]1C [rifampin]
- effect on Mtb's pHIB [1]: did not significantly alter pHIB
- sensitivity of the Rv3671c mutant to the antibiotic (Rv3671c mutant [7]): hypersensitive
- sensitivity of the lysX mutant to the antibiotic (lysX mutant): hypersensitive

SMILES: [H]/N=C(/N)N[C@H]1[C@H](O)[C@@H](O)[C@H](O[C@@H]2O[C@@H](C)[C@](O)(C=O)[C@H]2O[C@@H]2O[C@@H](CO)[C@H](O)[C@@H](O)[C@@H]2NC)[C@@H](N/C(N)=N\[H])[C@@H]1O [streptomycin]
- effect on Mtb's pHIB [1]: did not significantly alter pHIB
